From US9012604B2, “Triazanonane derivatives or pharmaceutically acceptable salt thereof for enhanced fluorine-18 labeling” (Snur & DB Foundation, priority 2011, dated 2015) come the findings set out here.

This data set concerns human serum protein. Description: Human serum protein binding measurement. The format is in vitro ADME. Conditions: compared with NO2A compound. As for the experimental part:
The labeling compounds were cultured in human serum (1 mL) at 37° C. for 10 min and 60 min, and loaded to PD-10 column (pre-conditioned with 1 mL of 1% BSA/0.1 M DTPA), swept under stream of PBS into 30 test tubes by 0.5 mL fractions each. The radioactivity of each test tube was measured with gamma counter, and […] of sample was collected from the respective test tubes. After impression on the paper filter and staining with Coomassie blue, the protein peaks were observed. By plotting a curve of radioactivity of the respective fractions and calculating protein binding percent, the result was obtained as shown in Table 3.

As for `O=C(O)CCCN1CCN(CC(=O)O)CCN(CC(=O)O)CC1` [Example 1, 4,7-bis(carboxymethyl)-1,4,7-triazonane-1-butyric acid], the “binding to human serum protein relative to NO2A compound” value was “three times higher”.
